Holding throughout (assay type): cell-based
The subject of test [1] is HeLa (cervical cancer). The experiment in a line: Antiproliferative activity (CCK-8 cell viability), HeLa. The settings on record: Homo sapiens, 72 h, read-out: Antiproliferative activity in cancerous cells, HELA (inhibition of cell growth); for inhibition at 3.3 µM: Compound concentration: 3.3 μM; for inhibition at 10 µM: Compound concentration: 10 μM. A digest of the protocol: (§1)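 Cells were seeded at 2,000-5,000/well (HeLa in MEM, HepG2 and SW480 in DMEM, A549 in F-12K, all with 10% FBS) and treated with compound at 3.3, 10 or 30 μM for 72 h at 37° C. CCK-8 was added for 4 h, absorbance was read at 450 nm, and viability was expressed relative to DMSO-treated wells.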

In test [2] the test system is HepG2 (liver cancer). In words: Antiproliferative activity (CCK-8 cell viability), HepG2. As to conditions: Homo sapiens, 72 h, read-out: Antiproliferative activity in cancerous cells, HepG2 (inhibition of cell growth); for inhibition at 3.3 µM: Compound concentration: 3.3 μM; for inhibition at 10 µM: Compound concentration: 10 μM. The method, boiled down: as §1
In test [3] the test system is B16F10 (malignant melanoma). The experiment in a line: Antiproliferative activity (CCK-8 cell viability), B16F10. As to conditions: Mus musculus, 72 h, read-out: Antiproliferative activity in cancerous cells, B16F10 (inhibition of cell growth); for inhibition at 3.3 µM: B16-F10, Compound concentration: 3.3 μM; for inhibition at 10 µM: B16-F10, Compound concentration: 10 μM. The method, boiled down:
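Attached B16F10 cells in 96-well plates were incubated with compound at 37° C for 72 h, followed by 10 μL CCK-8 reagent per well and a further 4 h incubation. A multi-well plate reader measured absorbance at 450 nm. Percent viability across replicates was calculated against DMSO vehicle-treated cells.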

Test [4] relates to SW480 (colon cancer). The experiment in a line: Antiproliferative activity (CCK-8 cell viability), SW480. As to conditions: Homo sapiens, 72 h; for inhibition at 3.3 µM: Compound concentration: 3.3 μM; for inhibition at 10 µM: Compound concentration: 10 μM; for inhibition at 30 µM: Compound concentration: 30 μM. A digest of the protocol:
as §1

The subject of test [5] is A549 (lung adenocarcinoma). In words: Antiproliferative activity (CCK-8 cell viability), A549. The settings on record: Homo sapiens, 72 h, read-out: Antiproliferative activity in cancerous cells, A549 (inhibition of cell growth); for inhibition at 3.3 µM: Compound concentration: 3.3 μM; for inhibition at 10 µM: Compound concentration: 10 μM. A digest of the protocol:
as §1

Test [6] concerns MDA-MB-231 (breast cancer). The experiment in a line: Antiproliferative activity (CCK-8 cell viability), MDA-MB-231. As to conditions: Homo sapiens, 72 h, read-out: Antiproliferative activity in cancerous cells, MDA-MB-231 (inhibition of cell growth); for inhibition at 3.3 µM: Compound concentration: 3.3 μM; for inhibition at 10 µM: Compound concentration: 10 μM. A digest of the protocol:
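In this CCK-8 viability assay, MDA-MB-231 cells maintained in Dulbecco's modified Eagle's medium containing 10% fetal bovine serum were placed in 96-well plates (2,000-5,000 cells/well) and treated with compound for 72 h at 37° C. A 4 h incubation with 10 μL CCK-8 followed, plates were read at 450 nm, and viability was expressed against DMSO vehicle wells across replicates.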

For test [7], the system named is A431 (epidermoid carcinoma). The experiment in a line: Antiproliferative activity (CCK-8 cell viability), A431. The settings on record: Homo sapiens, 72 h, read-out: Antiproliferative activity in cancerous cells, A431 (inhibition of cell growth); for inhibition at 3.3 µM: A-431, Compound concentration: 3.3 μM; for inhibition at 10 µM: A-431, Compound concentration: 10 μM. The method, boiled down: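 Cell viability of compound-treated A431 cells was measured with a Cell Counting Kit-8. Each well received 10 μL of CCK-8 after 72 h of compound exposure, followed by 4 h incubation at 37° C. and a 450 nm plate-reader measurement. Percent viability was calculated relative to DMSO controls across replicates.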

[8] abbreviates: read-out: Antiproliferative activity in cancerous cells, SW480 (inhibition of cell growth).

7 compounds from patent US20260184663A1, “INDENE COMPOUNDS, PHARMACEUTICAL COMPOSITIONS THEREOF, AND THEIR THERAPEUTIC APPLICATIONS” (NucMito Pharmaceuticals co. Ltd., priority 2022, published 2026) can be followed below.

Like-named read-outs stand apart in the source and are kept apart here.

With `CC1=C(CC(=O)O)c2cc(F)ccc2/C1=C\c1cccc(C(=O)Nc2ccc(F)cc2)c1` [B69, (Z)-2-(5-Fluoro-1-(3-((4-fluorophenyl)carbamoyl)benzylidene)-2-methyl-1H-inden-3-yl)acetic acid], the inhibition at 3.3 µM in test [1] was at least 50%; in test [2], 30 to 50%; in test [3], at least 50%; in test [4] (setting [8]), 30 to 50%; in test [5], below 30%; in test [6], 30 to 50%. For the same compound, in test [7], the inhibition at 3.3 µM is below 30%. The inhibition at 10 µM in test [1], in test [2], in test [3], in test [4] (setting [8]), in test [5] and in test [6] was at least 50% each time. For the same compound, the inhibition at 10 µM in test [7] is at least 50%.

Regarding `CC1=C(CC(=O)O)c2cc(F)ccc2/C1=C\c1ccc(Oc2ccc(Cl)cc2)cc1O` [C80, (Z)-2-(1-(4-(4-Chlorophenoxy)-2-hydroxybenzylidene)-5-fluoro-2-methyl-1H-inden-3-yl)acetic acid], the inhibition at 3.3 µM was below 30% in test [1]; below 30% in test [2]; 30 to 50% in test [3]; below 30% in test [4] (setting [8]); 30 to 50% in test [5]; at least 50% in test [6]. Also, in test [7], the inhibition at 3.3 µM was in the range of 30 to 50%. For the same compound, the inhibition at 10 µM in test [1], in test [2], in test [3], in test [4] (setting [8]), in test [5] and in test [6] was at least 50% throughout. Also, in test [7], the inhibition at 10 µM was at least 50%.

For the compound `CC1=C(CC(=O)O)c2cc(F)ccc2/C1=C\c1cccc(Oc2ccc(Br)cc2)c1` [C97, (Z)-2-(1-(3-(4-Bromophenoxy)benzylidene)-5-fluoro-2-methyl-1H-inden-3-yl)acetic acid], the inhibition at 3.3 µM in test [1] is below 30%; in test [2] it was below 30%; in test [3] it was 30 to 50%; in test [4] (setting [8]), below 30%; in test [5], below 30%; in test [6], below 30%. Also, the inhibition at 3.3 µM in test [7] was below 30%. Further, the inhibition at 10 µM in test [1] is at least 50%; in test [2] it was at least 50%; in test [3], at least 50%; in test [4] (setting [8]), below 30%; in test [5], 30 to 50%; in test [6], below 30%. Also, in test [7], the inhibition at 10 µM is below 30%.

In the case of `CC1=C(CC(=O)O)c2cc(Cl)ccc2/C1=C\c1cccc(Oc2ccc(C(F)(F)F)cc2)c1` [C105, (Z)-2-(5-Chloro-2-methyl-1-(3-(4-(trifluoromethyl)phenoxy)benzylidene)-1H-inden-3-yl)acetic acid], the inhibition at 3.3 µM in test [1], in test [2], in test [3], in test [4] (setting [8]), in test [5] and in test [6] was at least 50% throughout. Further, the inhibition at 3.3 µM in test [7] was at least 50%. In addition, the inhibition at 10 µM in test [1], in test [2], in test [3], in test [4] (setting [8]), in test [5] and in test [6] was at least 50% in each case. The inhibition at 10 µM in test [7] is at least 50%.

Turning to `CC1=C(CC(=O)O)c2cc(F)ccc2/C1=C/c1cccc(Oc2cccc(Cl)c2)c1` [E26, (E)-2-(1-(3-(3-Chlorophenoxy)benzylidene)-5-fluoro-2-methyl-1H-inden-3-yl)acetic acid], the inhibition at 3.3 µM in test [1], in test [2], in test [3], in test [4] (setting [8]), in test [5] and in test [6] was below 30% throughout. Besides, the inhibition at 3.3 µM in test [7] is below 30%. Besides, the inhibition at 10 µM was at least 50% in test [1]; at least 50% in test [2]; below 30% in test [3]; below 30% in test [4] (setting [8]); below 30% in test [5]; below 30% in test [6]. For the same compound, the inhibition at 10 µM in test [7] is at least 50%. Besides, the inhibition at 30 µM in test [1] (Compound concentration: 30 μM) was at least 50%; in test [2] (Compound concentration: 30 μM), at least 50%; in test [3] (B16-F10, Compound concentration: 30 μM), at least 50%; in test [4] (setting [8]), at least 50%; in test [5] (Compound concentration: 30 μM), at least 50%; in test [6] (Compound concentration: 30 μM) it was at least 50%. Also, the inhibition at 30 µM in test [7] (A-431, Compound concentration: 30 μM) was at least 50%.

Take `O=C(O)CC1=C(Cc2ccc(Oc3ccc(F)cc3)cc2)/C(=C/c2ccc(Oc3ccc(F)cc3)cc2)c2ccc(F)cc21` [A107, (Z)-2-(5-Fluoro-2-(4-(4-fluorophenoxy)benzyl)-1-(4-(4-fluorophenoxy)-benzylidene)-1H-inden-3-yl)acetic acid]: the inhibition at 3.3 µM in test [1], in test [2], in test [3], in test [4] (setting [8]), in test [5] and in test [6] was at least 50% throughout. For the same compound, in test [7], the inhibition at 3.3 µM is at least 50%. The inhibition at 10 µM in test [1], in test [2], in test [3], in test [4] (setting [8]), in test [5] and in test [6] was at least 50% in each case. For the same compound, the inhibition at 10 µM in test [7] was at least 50%.

Take `COc1ccc2c(c1)C(CC(=O)O)=C(C)/C2=C/c1ccc(Oc2cccc(Cl)c2)cc1` [C73, (Z)-2-(1-(4-(3-Chlorophenoxy)benzylidene)-5-methoxy-2-methyl-1H-inden-3-yl)acetic acid]: the inhibition at 3.3 µM in test [1] is 30 to 50%; in test [2], below 30%; in test [3] it was 30 to 50%; in test [4] (setting [8]) it was below 30%; in test [5], below 30%; in test [6], below 30%. Moreover, the inhibition at 3.3 µM in test [7] lay within 30 to 50%. The inhibition at 10 µM in test [1] was at least 50%; in test [2], below 30%; in test [3], at least 50%; in test [4] (setting [8]), below 30%; in test [5] it was below 30%; in test [6] it was 30 to 50%. Also, in test [7], the inhibition at 10 µM was at least 50%. In addition, the inhibition at 30 µM in test [4] (read-out: Antiproliferative activity in cancerous cells, SW480) was in the range of 30 to 50%.
